{
  "source": "ChEMBL document CHEMBL4190212",
  "about": "“Synthesis, antiprotozoal activity, and chemoinformatic analysis of 2-(methylthio)-1H-benzimidazole-5-carboxamide derivatives: Identification of new selective giardicidal and trichomonicidal compounds” (Eur J Med Chem, 2017)",
  "key": {"Trichomonas vaginalis": {"test_system": "Trichomonas vaginalis", "test": "Antiparasitic activity against trophozoite stage of Trichomonas vaginalis CNCD 147 after 48 hrs", "assay_type": "functional, organism-based", "details": "CNCD 147, 48 h"}, "Entamoeba histolytica [1]": {"test_system": "Entamoeba histolytica", "test": "Antiparasitic activity against trophozoite stage of Entamoeba histolytica HM-1:IMSS after 48 hrs", "assay_type": "functional, organism-based"}, "Giardia intestinalis [2]": {"test_system": "Giardia intestinalis", "test": "Antiparasitic activity against trophozoite stage of Giardia intestinalis IMSS:0989:1 after 48 hrs", "assay_type": "functional, organism-based", "details": "Giardia duodenalis, IMSS:0989:1, 48 h"}, "Entamoeba histolytica [3]": {"test_system": "Entamoeba histolytica", "test": "Antiparasitic activity against trophozoite stage of Entamoeba histolytica HM-1:IMSS after 48 hrs by haemocytometric method", "assay_type": "functional, organism-based"}, "Giardia intestinalis [4]": {"test_system": "Giardia intestinalis", "test": "Potency index, ratio of metronidazole IC50 to test compound IC50 for trophozoite stage of Giardia intestinalis IMSS:0989:1", "assay_type": "functional, Giardia duodenalis"}, "Entamoeba histolytica [5]": {"test_system": "Entamoeba histolytica", "test": "Potency index, ratio of metronidazole IC50 to test compound IC50 for trophozoite stage of Entamoeba histolytica HM-1:IMSS", "assay_type": "functional"}},
  "data": [
    {"smiles": "CSc1nc2cc(C(=O)N/N=C/c3ccc([N+](=O)[O-])o3)c(Cl)cc2n1C", "values": [
      {"measurement": "IC50", "setting": "Trichomonas vaginalis", "result": 13.2, "unit": "nM"},
      {"measurement": "IC50", "setting": "Entamoeba histolytica [1]", "result": 26.6, "unit": "nM"},
      {"measurement": "IC50", "setting": "Giardia intestinalis [2]", "result": 29.2, "unit": "nM"}
    ]},
    {"smiles": "FC(F)(F)c1nc2c(Br)c(Br)c(Br)cc2[nH]1", "values": [
      {"measurement": "IC50", "setting": "Entamoeba histolytica [3]", "result": 13800, "unit": "nM"}
    ]},
    {"smiles": "CSc1nc2cc(C(=O)Nc3ccccn3)c(Cl)cc2[nH]1", "values": [
      {"measurement": "IC50", "setting": "Trichomonas vaginalis", "result": 67.6, "unit": "nM"},
      {"measurement": "IC50", "setting": "Entamoeba histolytica [1]", "result": 44, "unit": "nM"},
      {"measurement": "IC50", "setting": "Giardia intestinalis [2]", "result": 77, "unit": "nM"}
    ]},
    {"smiles": "FC(F)(F)C(F)(F)c1nc2c(Br)c(Br)c(Br)c(Br)c2[nH]1", "values": [
      {"measurement": "IC50", "setting": "Entamoeba histolytica [3]", "result": 229, "unit": "nM"}
    ]},
    {"smiles": "CSc1nc2cc(C(=O)NNC(=O)OC(C)(C)C)c(Cl)cc2n1C", "values": [
      {"measurement": "IC50", "setting": "Trichomonas vaginalis", "result": 28.3, "unit": "nM"},
      {"measurement": "IC50", "setting": "Entamoeba histolytica [1]", "result": 48.5, "unit": "nM"},
      {"measurement": "IC50", "setting": "Giardia intestinalis [2]", "result": 56.6, "unit": "nM"}
    ]},
    {"smiles": "CSc1nc2cc(C(=O)Nc3cccc(C)n3)c(Cl)cc2n1C", "values": [
      {"measurement": "IC50", "setting": "Trichomonas vaginalis", "result": 28.8, "unit": "nM"},
      {"measurement": "IC50", "setting": "Entamoeba histolytica [1]", "result": 41.8, "unit": "nM"},
      {"measurement": "IC50", "setting": "Giardia intestinalis [2]", "result": 15.8, "unit": "nM"}
    ]},
    {"smiles": "CSc1nc2cc(C(=O)Nc3cccc(C)n3)c(Cl)cc2[nH]1", "values": [
      {"measurement": "IC50", "setting": "Trichomonas vaginalis", "result": 111, "unit": "nM"},
      {"measurement": "IC50", "setting": "Entamoeba histolytica [1]", "result": 81.3, "unit": "nM"},
      {"measurement": "IC50", "setting": "Giardia intestinalis [2]", "result": 135, "unit": "nM"}
    ]},
    {"smiles": "O=[N+]([O-])c1cc2nc(C(F)(F)F)[nH]c2cc1[N+](=O)[O-]", "values": [
      {"measurement": "IC50", "setting": "Entamoeba histolytica [3]", "result": 1550, "unit": "nM"}
    ]},
    {"smiles": "CSc1nc2cc(C(=O)Nc3cccc(Cl)c3)c(Cl)cc2[nH]1", "values": [
      {"measurement": "IC50", "setting": "Trichomonas vaginalis", "result": 162, "unit": "nM"},
      {"measurement": "IC50", "setting": "Entamoeba histolytica [1]", "result": 51, "unit": "nM"},
      {"measurement": "IC50", "setting": "Giardia intestinalis [2]", "result": 1110, "unit": "nM"}
    ]},
    {"smiles": "CSc1nc2cc(C(=O)Nc3cccc(C)c3)c(Cl)cc2[nH]1", "values": [
      {"measurement": "IC50", "setting": "Trichomonas vaginalis", "result": 515, "unit": "nM"},
      {"measurement": "IC50", "setting": "Entamoeba histolytica [1]", "result": 120, "unit": "nM"},
      {"measurement": "IC50", "setting": "Giardia intestinalis [2]", "result": 250, "unit": "nM"}
    ]},
    {"smiles": "CSc1nc2cc(C(=O)Nc3cccc(Cl)n3)c(Cl)cc2n1C", "values": [
      {"measurement": "IC50", "setting": "Trichomonas vaginalis", "result": 368, "unit": "nM"},
      {"measurement": "IC50", "setting": "Entamoeba histolytica [1]", "result": 40.8, "unit": "nM"},
      {"measurement": "IC50", "setting": "Giardia intestinalis [2]", "result": 12.2, "unit": "nM"}
    ]},
    {"smiles": "CSc1nc2cc(C(=O)Nc3cccc(Cl)n3)c(Cl)cc2[nH]1", "values": [
      {"measurement": "IC50", "setting": "Trichomonas vaginalis", "result": 128, "unit": "nM"},
      {"measurement": "IC50", "setting": "Entamoeba histolytica [1]", "result": 36.9, "unit": "nM"},
      {"measurement": "IC50", "setting": "Giardia intestinalis [2]", "result": 454, "unit": "nM"}
    ]},
    {"smiles": "CSc1nc2cc(C(=O)Nc3ccccn3)c(Cl)cc2n1C", "values": [
      {"measurement": "IC50", "setting": "Trichomonas vaginalis", "result": 12, "unit": "nM"},
      {"measurement": "IC50", "setting": "Entamoeba histolytica [1]", "result": 34.5, "unit": "nM"},
      {"measurement": "IC50", "setting": "Giardia intestinalis [2]", "result": 346, "unit": "nM"}
    ]},
    {"smiles": "CSc1nc2cc(C(=O)Nc3ccccc3)c(Cl)cc2[nH]1", "values": [
      {"measurement": "IC50", "setting": "Trichomonas vaginalis", "result": 120, "unit": "nM"},
      {"measurement": "IC50", "setting": "Entamoeba histolytica [1]", "result": 52, "unit": "nM"},
      {"measurement": "IC50", "setting": "Giardia intestinalis [2]", "result": 72.5, "unit": "nM"}
    ]},
    {"smiles": "CSc1nc2cc(C(=O)Nc3ccc([N+](=O)[O-])cn3)c(Cl)cc2n1C", "values": [
      {"measurement": "Ratio IC50", "setting": "Giardia intestinalis [4]", "result": 155},
      {"measurement": "IC50", "setting": "Trichomonas vaginalis", "result": 41, "unit": "nM"},
      {"measurement": "IC50", "setting": "Entamoeba histolytica [1]", "result": 9.2, "unit": "nM"},
      {"measurement": "Ratio IC50", "setting": "Entamoeba histolytica [5]", "result": 41},
      {"measurement": "IC50", "setting": "Giardia intestinalis [2]", "result": 7.9, "unit": "nM"}
    ]},
    {"smiles": "FC(F)(F)c1nc2cc(Br)c(Br)cc2[nH]1", "values": [
      {"measurement": "IC50", "setting": "Entamoeba histolytica [3]", "result": 437, "unit": "nM"}
    ]}
  ]
}
